US9057076B2, “Compounds purified from blue roses” (SUNTORY HOLDINGS LIMITED, priority 2009, dated 2015)

Columns and labels:
[1] = Visible to ultraviolet absorption spectrum by HPLC with photodiode array detector; format: physicochemical; conditions: for λmax (absorption maximum): in 30% acetonitrile and 0.5% TFA, spectra 650 nm to 250 nm; for color compared with the compound of formula (II) of Patent Document 3: judged from the longer wavelength of the absorption maximum
Method: The blue pigment (1), the red pigment (2) and the blue pigment (3) were analyzed by HPLC, and their absorption spectra at 650 nm to 250 nm in 30% acetonitrile and 0.5% TFA were measured with a photodiode array detector (see FIGS. 3, 5 and 7).
HPLC was carried out by using a Shodex Asahipak ODP50 column (Showa Denko, 4.6 mm in diameter×25 cm) for the column and isocratic elution of a mobile phase consisting of 30% acetonitrile and 0.5% TFA at a flow rate of 0.6 ml/min. Detection was carried out by measuring the absorption spectra at 650 nm to 250 nm with a photodiode array detector (SPDM10Avp, Shimadzu) and monitoring the chromatogram at A560 nm.

[2] = Visual observation of color tone of isolated pigments; format: physicochemical
From the text: The freeze-dried product, the blue pigment (1), the red pigment (2) and the blue pigment (3) obtained in the manner described above were visually observed for color tone.
The blue pigment (1), the red pigment (2) and the blue pigment (3) were visually observed for color tone.

[3] = freeze-dried product from Lavande variety transfected with plasmid pSPB919 (Example 1)
[4] = pigments from variety WKS82 transfected with plasmid pSPB130 (Example 3)

λmax (absorption maximum) [1] | color compared with the compound of formula (II) of Patent Document 3 [1] | color tone, visually observed [2, 3] | color tone, visually observed [2, 4] | Structure (SMILES)
593 nm | deeper blue color | deep blue | deep blue | O=C(OC1C(O)OC2COC(=O)c3cc(Oc4c(-c5cc(O)c(O)c(O)c5)[o+]c5cc(O)cc6c5c4-c4c(C(=O)O)cc(O)c(O)c4O6)c(O)c(O)c3-c3c(cc(O)c(O)c3O)C(=O)O[C@H]2C1OC(=O)c1cc(O)c(O)c(O)c1)c1cc(O)c(O)c(O)c1 (some centres unmarked) [blue pigment (1)]
594 nm | deeper blue color | deep blue | deep blue | O=C(OC1C(OC(=O)c2cc(O)c(O)c(O)c2)[C@@H]2OC(=O)c3cc(O)c(O)c(O)c3-c3c(cc(Oc4c(-c5cc(O)c(O)c(O)c5)[o+]c5cc(O)cc6c5c4-c4ccc(O)c(O)c4O6)c(O)c3O)C(=O)OCC2O[C@H]1OC(=O)c1cc(O)c(O)c(O)c1)c1cc(O)c(O)c(O)c1 (some centres unmarked) [blue pigment (3)]
535 nm | – | deep red | deep red | O=c1oc2c(-c3cc(O)c(O)c(O)c3)[o+]c3cc(O)cc4c3c2c2c(c(O)c(O)cc12)O4 [red pigment (2)]
